The source of these data is ChEMBL document CHEMBL2046331, “Lead optimization of a sulfonylurea-based piperazine pyridazinone series of glucan synthase inhibitors” (Bioorg Med Chem Lett, 2012).

≈ marks a conversion by molar mass, not a printed value.

In one data set the test system is Nakaseomyces glabratus. Put plainly: Antifungal activity against Candida glabrata C624 by broth dilution method. The data set is classed as functional. The following applies: read-out: MIC100. (Dilution methods test growth across graded concentrations, often in twofold steps.)
Another data set addresses T1, Beta-1,3-glucan synthase (Candida albicans, UniProt O13383).
T1 sequence (O13383 whole entry): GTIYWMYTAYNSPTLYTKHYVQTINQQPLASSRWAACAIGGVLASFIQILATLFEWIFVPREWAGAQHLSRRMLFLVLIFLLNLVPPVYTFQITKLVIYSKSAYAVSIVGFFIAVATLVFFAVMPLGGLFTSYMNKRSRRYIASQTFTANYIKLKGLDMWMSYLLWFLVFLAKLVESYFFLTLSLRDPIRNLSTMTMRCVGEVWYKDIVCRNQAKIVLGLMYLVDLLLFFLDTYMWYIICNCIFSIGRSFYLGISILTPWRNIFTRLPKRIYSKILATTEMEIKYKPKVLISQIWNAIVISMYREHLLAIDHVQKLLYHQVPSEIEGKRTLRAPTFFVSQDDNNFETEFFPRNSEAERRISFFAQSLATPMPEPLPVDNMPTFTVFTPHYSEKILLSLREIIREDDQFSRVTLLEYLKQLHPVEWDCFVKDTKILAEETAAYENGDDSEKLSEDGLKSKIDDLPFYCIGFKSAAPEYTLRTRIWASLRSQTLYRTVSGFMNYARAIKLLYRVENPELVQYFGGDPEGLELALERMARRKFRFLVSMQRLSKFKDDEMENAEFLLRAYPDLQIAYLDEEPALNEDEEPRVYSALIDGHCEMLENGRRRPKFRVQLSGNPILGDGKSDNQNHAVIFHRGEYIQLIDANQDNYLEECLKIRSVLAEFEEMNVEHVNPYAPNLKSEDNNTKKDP
Put plainly: Inhibition of glucan synthase in Candida albicans BWP17 membrane. In kind it is cell membranes.

For data set [1], the system named is Candida albicans. Put plainly: Antifungal activity against Candida albicans C693 by broth dilution method. In kind it is functional. Conditions: read-out: MIC100.
Data set [2] has as its system Candida albicans. The data set is described as follows: Antifungal activity against Candida albicans C43 by broth dilution method. The data set is classed as functional. Conditions: read-out: MIC100.
A further data set has as its system Aspergillus fumigatus. The data set is described as follows: Antifungal activity against Aspergillus fumigatus ND158 by broth dilution method. The following applies: read-out: MEC. In kind it is functional.
Data set [3] relates to Candida albicans. Put plainly: Antifungal activity against Candida albicans C375 by broth dilution method. In kind it is functional. The following applies: read-out: MIC100.
A short description of data set [4]: AUC (0 to 6 hrs) in rat at 10 mg/kg, po. Set-up: time < 6 hr, dose 10 mg/kg, route oral. The data set is classed as ADME, organism-based. The following applies: plasma.
Data set [5] is described as follows: Clearance in rat hepatocytes assessed per million cells. The data set is classed as ADME, cell-based, Hepatocyte. Conditions: read-out: CLH.
Data set [6] concerns Candida albicans. Put plainly: Antifungal activity against Candida albicans C43 by broth dilution method in presence of 25% human serum. The following applies: read-out: MIC100. The data set is classed as functional.
Data set [7] can be described thus: Clearance in human hepatocytes assessed per million cells. The data set is classed as ADME, cell-based, Hepatocyte. Conditions: read-out: CLH.

For `Cc1nc2ccc(CNS(=O)(=O)N3CCN(/C(C=N)=C(\OCC4(C)CC4)C(=O)Nc4cccc(Cl)c4)CC3)cc2s1`, the MIC is 0.06 µg/mL (≈ 0.0972 µM) in the data set on Nakaseomyces glabratus and 0.52 µg/mL (≈ 0.843 µM) with Candida albicans [1]. For the same compound, on Beta-1,3-glucan synthase, the IC50 (commonly the concentration needed to halve the response being measured) is 97.2 nM.
Regarding `CCN(CC)S(=O)(=O)N1CCN(/C(C=N)=C(\OC2CCCC2)C(=O)Nc2cccc(Cl)c2)CC1`, the MIC stood at 0.2 µg/mL (≈ 0.391 µM) in the data set on Nakaseomyces glabratus and 6.25 µg/mL (≈ 12.2 µM) in the data set with Candida albicans [1]. On Beta-1,3-glucan synthase, this compound had an IC50 of 625 nM.
The corresponding values for `N=C/C(=C(/OC1CCCC1)C(=O)Nc1cccc(Cl)c1)N1CCN(S(=O)(=O)Nc2ccccc2)CC1` are 0.16 µg/mL (≈ 0.301 µM), over 25 µg/mL and 117 nM.
On to `CC1(CO/C(C(=O)Nc2cccc(Cl)c2)=C(/C=N)N2CCN(S(=O)(=O)NCc3ccc(F)c(N)c3)CC2)CC1`, for which the MIC in the data set with Candida albicans [2] is 2.08 µg/mL (≈ 3.59 µM); in the data set on Nakaseomyces glabratus, 0.52 µg/mL (≈ 0.898 µM); in the data set on Candida albicans [3], 4.17 µg/mL (≈ 7.2 µM); in the data set with Candida albicans [1], 0.52 µg/mL (≈ 0.898 µM). Further, in the data set with Aspergillus fumigatus, the minimal effective concentration was 2.08 µg/mL. At Beta-1,3-glucan synthase, this compound had an IC50 of 297 nM.
Regarding `Cc1ccc(CNS(=O)(=O)N2CCN(/C(C=N)=C(\OC3CCC(F)C3)C(=O)Nc3cc(F)cc(F)c3)CC2)cc1N` (mixture of isomers), the AUC(0-t) (usually exposure summed from dosing to a finite time, without extrapolation to infinity) at 6 h in data set [4] worked out at 2580 ng·h/mL.
Turning to `CN(C)S(=O)(=O)N1CCN(/C(C=N)=C(\OC2CCCC2)C(=O)Nc2cccc(Cl)c2)CC1`, the MIC was found to be 0.1 µg/mL (≈ 0.207 µM) with Nakaseomyces glabratus and 6.25 µg/mL (≈ 12.9 µM) in the data set on Candida albicans [1]. The compound further had an IC50 on Beta-1,3-glucan synthase of 1900 nM.
Regarding `CC1(CO/C(C(=O)Nc2cccc(Cl)c2)=C(/C=N)N2CCN(S(=O)(=O)NCc3ccccc3)CC2)CC1`, the MIC in the data set with Nakaseomyces glabratus is 2.08 µg/mL (≈ 3.81 µM); in the data set with Candida albicans [1], over 33 µg/mL. The compound also had a 50% inhibitory concentration (IC50) at Beta-1,3-glucan synthase of 5310 nM.
The corresponding values for `N=C/C(=C(/OC1CCCC1)C(=O)Nc1cccc(Cl)c1)N1CCN(S(=O)(=O)N2CCOCC2)CC1` are 0.39 µg/mL (≈ 0.741 µM), 25 µg/mL (≈ 47.5 µM) and 2870 nM.
In the case of `CC1(CO/C(C(=O)Nc2cccc(Cl)c2)=C(/C=N)N2CCN(S(=O)(=O)NCc3ccnc(N)c3)CC2)CC1`, the MIC is 16.7 µg/mL (≈ 29.7 µM) with Candida albicans [2], 2.08 µg/mL (≈ 3.7 µM) in the data set on Nakaseomyces glabratus, over 33 µg/mL in the data set with Candida albicans [3] and 8.35 µg/mL (≈ 14.9 µM) in the data set on Candida albicans [1]. In addition, the minimal effective concentration with Aspergillus fumigatus came out at 16.7 µg/mL. The compound further yielded an AUC(0-t) at 6 h in [4] of 50 ng·h/mL. At Beta-1,3-glucan synthase, this compound had an IC50 of 409 nM.
Take `CC1(CO/C(C(=O)Nc2cccc(Cl)c2)=C(/C=N)N2CCN(S(=O)(=O)NCc3ccc(N)c(F)c3)CC2)CC1`: the MIC in the data set with Candida albicans [2] is 0.13 µg/mL (≈ 0.224 µM); with Nakaseomyces glabratus it was 0.13 µg/mL (≈ 0.224 µM); in the data set with Candida albicans [3], 0.52 µg/mL (≈ 0.898 µM); in the data set with Candida albicans [6] it was 1.04 µg/mL; with Candida albicans [1] it was 0.06 µg/mL (≈ 0.104 µM). In data set [5], the hepatocyte CLint amounted to 12.7 µL/min/1e6 cells. The minimal effective concentration in the data set on Aspergillus fumigatus worked out at 1.04 µg/mL. This compound gave an IC50 against Beta-1,3-glucan synthase of 111 nM.
On to `Cc1ccc(CNS(=O)(=O)N2CCN(/C(C=N)=C(\OCC3(C)CC3)C(=O)Nc3cccc(Cl)c3)CC2)cc1N`, for which the MIC came out at 0.52 µg/mL (≈ 0.904 µM) with Candida albicans [2], 0.26 µg/mL (≈ 0.452 µM) in the data set on Nakaseomyces glabratus, 2.08 µg/mL (≈ 3.62 µM) in the data set with Candida albicans [3] and 0.26 µg/mL (≈ 0.452 µM) in the data set on Candida albicans [1]. For the same compound, in data set [7], the hepatocyte CLint stood at 19.6 µL/min/1e6 cells. In the data set on Aspergillus fumigatus, the minimal effective concentration turned out to be 1.04 µg/mL. In data set [4], this compound yielded an AUC(0-t) at 6 h of 1410 ng·h/mL. Further, the IC50 on Beta-1,3-glucan synthase is 125 nM.
Turning to `Cc1cc(CNS(=O)(=O)N2CCN(/C(C=N)=C(\OCC3(C)CC3)C(=O)Nc3cccc(Cl)c3)CC2)ccc1N`, the MIC was found to be 0.52 µg/mL (≈ 0.904 µM) in the data set on Candida albicans [2], 0.52 µg/mL (≈ 0.904 µM) in the data set on Nakaseomyces glabratus, 2.08 µg/mL (≈ 3.62 µM) in the data set on Candida albicans [3] and 0.26 µg/mL (≈ 0.452 µM) in the data set with Candida albicans [1]. Moreover, in data set [7], the hepatocyte CLint amounted to 13.4 µL/min/1e6 cells. The minimal effective concentration with Aspergillus fumigatus was 2.08 µg/mL. In [4], this compound registered an exposure AUC(0-t) at 6 h of 900 ng·h/mL. In addition, on Beta-1,3-glucan synthase, inhibition was half-maximal at 108 nM (IC50).
